According to paper PMC8587151, “Dibenzofuran Derivatives Inspired from Cercosporamide as Dual Inhibitors of Pim and CLK1 Kinases” (Molecules, 2021):

Target: T1, HsPim-1 (Homo sapiens, UniProt P11309)
T1 construct: made in house; host or cells: Escherichia coli BL21 DE3 pLysS
T1 sequence (P11309 whole entry): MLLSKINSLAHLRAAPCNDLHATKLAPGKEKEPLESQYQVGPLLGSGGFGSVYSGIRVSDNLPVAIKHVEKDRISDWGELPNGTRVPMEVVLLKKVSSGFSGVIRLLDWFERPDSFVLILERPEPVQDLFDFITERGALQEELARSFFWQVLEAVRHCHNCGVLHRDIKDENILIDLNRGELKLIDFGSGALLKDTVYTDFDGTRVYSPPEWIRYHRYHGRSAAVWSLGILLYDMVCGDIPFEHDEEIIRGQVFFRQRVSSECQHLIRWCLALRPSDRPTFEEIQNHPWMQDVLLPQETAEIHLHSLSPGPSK
Assay: Kinase assay, luminescent ADP-Glo, 10 µM ATP
Format: biochemical
Settings: Table 1; ADP-Glo, 10 µM ATP, duplicate; read-out: Kinase Enzymatic IC50 Pim-1
Description: (§1) The synthesized compounds were tested using a luminescence-based assay against a panel of nine kinases: Pim-1, Pim-2, CDK5/p25, CDK9/CyclinT, Haspin, CK1ε, and GSK3β (from human); DYRK1A (from Rattus norvegicus); and CLK1 (from Mus musculus).
(§2) Kinase enzymatic activities were assayed with 10 µM ATP in 384-well plates using the luminescent ADP-Glo^TM assay (Promega, Madison, WI, USA) according to the recommendations of the manufacturer (see [56] for details on this method). The transmitted signal was measured using the Envision (PerkinElmer, Waltham, MA, USA) microplate luminometer and expressed in relative light unit (RLU). In order to determine the half maximal inhibitory concentration (IC50), the assays were performed in duplicate in the absence or presence of increasing doses of the tested compounds. GraphPad Prism6 software (GraphPad Software, San Diego, CA, USA) was used to fit dose–response curves and to determine the IC50 values. Kinase activities are expressed in % of maximal activity, i.e., measured in the absence of inhibitor. Peptide substrates were obtained from Proteogenix (Schiltigheim, France).
(§3) For kinases expressed in bacteria, the Escherichia coli BL21 DE3 pLysS strain (Invitrogen, ThermoFisher Scientific, Waltham, MA, USA) was transformed with pGEX-2T-1 (Sigma-Aldrich, St. Louis, MO, USA) containing the coding region of the corresponding kinase. For kinases expressed in Sf9 insect cells, the coding region of the corresponding kinase was cloned in pFastBac^TM vector. Purification of the recombinant kinases was performed following the protocol “Bac-to-Bac® Baculovirus Expression System” provided by the manufacturer (Invitrogen, ThermoFisher Scientific, Waltham, MA, USA).
(§4) To validate the kinase assay, model inhibitors were used for each tested enzyme: Staurosporine from Streptomyces sp. (#S5921, purity ≥ 95%, Sigma-Aldrich) for HsCK1ε; Indirubin-30-oxime (#I0404, purity ≥ 98%, Sigma-Aldrich) for HsGSK-3β, HsPim-1 and 2, human cyclin-dependent kinases, RnDYRK1A and MmCLK1; CHR-6494 (#SML0648, purity ≥ 98%, Sigma-Aldrich) for Haspin.
In the case of `COc1cc(OC)c2c(oc3ccc(C(F)(F)F)cc32)c1C(N)=O` [Compound 42, 1,3-Dimethoxy-8-(trifluoromethyl)dibenzo[b,d]furan-4-carboxamide], the IC50 is reported as over 10 µM. `COc1cc(OC)c2c(oc3c(N)cccc32)c1C(N)=O` [Compound 18, 6-Amino-1,3-dimethoxydibenzo[b,d]furan-4-carboxamide] gave an IC50 of over 10 µM. For `COc1ccc2c(c1)oc1c(C(N)=O)c(OC)cc(OC)c12` [Compound 39, 1,3,7-Trimethoxydibenzo[b,d]furan-4-carboxamide], the IC50 was over 10 µM. `NC(=O)c1c(O)cc(O)c2c1oc1ccccc12` [Compound 17, 1,3-Dihydroxydibenzo[b,d]furan-4-carboxamide] showed an IC50 of 0.23 µM. In the case of `COc1cc(OC)c2c(oc3c([N+](=O)[O-])cccc32)c1C(N)=O` [Compound 14, 1,3-Dimethoxy-6-nitrodibenzo[b,d]furan-4-carboxamide], the IC50 is reported as 3.21 µM. `CC(=O)c1cc2c(cc1O)oc1c(C(N)=O)c(O)cc(O)c12` [Compound 43, 8-Acetyl-1,3,7-trihydroxydibenzo[b,d]furan-4-carboxamide] showed an IC50 of 0.82 µM. With `COc1cc(OC)c2c(oc3ccccc32)c1C(N)=O` [Compound 19, 1,3-Dimethoxydibenzo[b,d]furan-4-carboxamide] the IC50 was over 10 µM.

Same assay, conditions: Table 2; ADP-Glo, 10 µM ATP, mean of n ≥ 3; read-out: IC50 Pim-1
`NC(=O)c1c(O)cc(O)c2c1oc1ccccc12` [Compound 17, 1,3-Dihydroxydibenzo[b,d]furan-4-carboxamide] showed an IC50 of 0.23 µM. `CC(=O)c1cc2c(cc1O)oc1c(C(N)=O)c(O)cc(O)c12` [Compound 43, 8-Acetyl-1,3,7-trihydroxydibenzo[b,d]furan-4-carboxamide] gave an IC50 of 0.82 µM.

Target: T2, HsPim-2 (Homo sapiens, UniProt Q9P1W9)
T2 construct: made in house; host or cells: Escherichia coli BL21 DE3 pLysS
T2 sequence (Q9P1W9 whole entry): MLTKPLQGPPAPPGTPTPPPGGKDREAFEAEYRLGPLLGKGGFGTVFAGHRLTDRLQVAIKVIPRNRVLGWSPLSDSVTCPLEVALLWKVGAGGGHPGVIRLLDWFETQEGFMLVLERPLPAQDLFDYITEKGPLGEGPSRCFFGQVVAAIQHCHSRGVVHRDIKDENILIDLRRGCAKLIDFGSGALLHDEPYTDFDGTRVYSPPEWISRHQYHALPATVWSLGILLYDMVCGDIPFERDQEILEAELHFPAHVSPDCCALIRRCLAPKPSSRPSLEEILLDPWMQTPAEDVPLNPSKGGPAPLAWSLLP
Assay: Kinase assay, luminescent ADP-Glo, 10 µM ATP
Format: biochemical
Settings: mean of n ≥ 3, read-out: IC50 Pim-2
Description: as §1, §2, §3, §4
In the case of `CC(=O)c1cc2c(cc1O)oc1c(C(N)=O)c(O)cc(O)c12` [Compound 43, 8-Acetyl-1,3,7-trihydroxydibenzo[b,d]furan-4-carboxamide], the IC50 is reported as 0.14 µM.

Target: T3, MmCLK1 (Mus musculus, UniProt P22518)
T3 construct: made in house; host or cells: Escherichia coli BL21 DE3 pLysS
T3 sequence (P22518 whole entry): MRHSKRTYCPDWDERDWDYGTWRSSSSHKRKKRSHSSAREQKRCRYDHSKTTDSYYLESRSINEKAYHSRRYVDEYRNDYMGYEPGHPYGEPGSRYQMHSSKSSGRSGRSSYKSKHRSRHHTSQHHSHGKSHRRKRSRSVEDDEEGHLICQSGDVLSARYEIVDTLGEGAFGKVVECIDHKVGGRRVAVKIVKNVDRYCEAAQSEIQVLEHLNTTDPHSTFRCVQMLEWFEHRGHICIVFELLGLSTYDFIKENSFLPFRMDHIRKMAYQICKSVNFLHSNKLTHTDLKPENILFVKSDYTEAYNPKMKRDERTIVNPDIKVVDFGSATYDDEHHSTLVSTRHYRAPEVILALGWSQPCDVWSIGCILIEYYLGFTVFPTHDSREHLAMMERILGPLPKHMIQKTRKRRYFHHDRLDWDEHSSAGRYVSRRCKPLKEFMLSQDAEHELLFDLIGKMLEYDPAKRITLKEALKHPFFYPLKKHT
Assay: Kinase assay, luminescent ADP-Glo, 10 µM ATP
Format: biochemical
Settings: ADP-Glo, 10 µM ATP, duplicate; read-out: Kinase Enzymatic IC50 CLK1
Description: as §1, §2, §3, §4
Compound `NC(=O)c1c(O)cc(O)c2c1oc1ccccc12` [Compound 17, 1,3-Dihydroxydibenzo[b,d]furan-4-carboxamide] has an IC50 of 0.26 µM.

Tested on: MV4-11 cells
Assay: MTT cell proliferation assay
Format: cell-based, human
Settings: Homo sapiens, MV4-11, 48 h, mean ± SEM
Excerpt: (§5) Various types of hematological malignancies were selected for in vitro testing: the human acute myeloid leukemia (AML) cell line MV4-11, and the human chronic myeloid leukemia (CML) cell lines KU812 and K562. Indeed, Pim kinases are overexpressed in a wide range of hematopoietic malignancies. Solid tumors were also included in the panel of tested cell lines: MCF-7 (human breast adenocarcinoma), HT-29 (human colon adenocarcinoma), and HeLa (human cervical cancer) cells. Cytotoxic effects were evaluated using an MTT assay, and living cells were also counted with the trypan blue dye exclusion method for MV4-11, KU812, and K562 cells.
(§6) MV4-11, K562, and KU812 cell lines were obtained from the Deutshe Sammlung von Mikroorganismens und Zellkulturen (DSMZ) and maintained according to the supplier’s recommendations. All cell lines were cultured in RPMI, with 10% fetal bovine serum, 1% glutamine, and 1% penicillin/ streptomycin at 37 °C and 5% CO2.
(§7) MV4-11, K562, and KU812 cells’ viability was studied using a MTT cell proliferation assay.
(§8) MV4-11, K562, and KU812 cells were incubated with 10 μL of MTT working solution (5 g/L of methylthiazolyldiphenyl-tetrazolium bromide from Sigma Aldrich, Lyon, France) for 4 h. Cells were then lysed overnight at 37 °C with 100 μL of 10% SDS and 0.003% HCl. Optical density (OD) at 570 nm was measured using a spectrophotometer CLARIOstar® (BMG Labtech, Offenburg, Germany). Living cells were also counted with the trypan blue dye exclusion method. […] Data were collected from at least three independent experiments and the values reported are means ± standard errors of the mean (SEM).
`CN1CCC(CNc2ccc3ncc(-c4cccc(OC(F)(F)F)c4)n3n2)CC1` [SGI-1776, reference compound] gave an IC50 of 0.03 ± 0.003 µM. Compound `NC(=O)c1c(O)cc(O)c2c1oc1ccccc12` [Compound 17, 1,3-Dihydroxydibenzo[b,d]furan-4-carboxamide] has an IC50 of 14.3 ± 1.1 µM. Compound `CC(=O)c1cc2c(cc1O)oc1c(C(N)=O)c(O)cc(O)c12` [Compound 43, 8-Acetyl-1,3,7-trihydroxydibenzo[b,d]furan-4-carboxamide] has an IC50 of 52.2 ± 1.7 µM.

Tested on: K562 cells
Assay: MTT cell proliferation assay
Format: cell-based
Settings: Homo sapiens, 48 h, mean ± SEM
Excerpt: as §5, §6, §7, §8
`CN1CCC(CNc2ccc3ncc(-c4cccc(OC(F)(F)F)c4)n3n2)CC1` [SGI-1776, reference compound] gave an IC50 of 3.7 ± 1.5 µM. `NC(=O)c1c(O)cc(O)c2c1oc1ccccc12` [Compound 17, 1,3-Dihydroxydibenzo[b,d]furan-4-carboxamide] gave an IC50 of over 100 µM. Work on `CC(=O)c1cc2c(cc1O)oc1c(C(N)=O)c(O)cc(O)c12` [Compound 43, 8-Acetyl-1,3,7-trihydroxydibenzo[b,d]furan-4-carboxamide] yielded an IC50 of over 100 µM.

Tested on: KU812 cells
Assay: MTT cell proliferation assay
Format: cell-based
Settings: Homo sapiens, 48 h, mean ± SEM
Excerpt: as §5, §6, §7, §8
`CN1CCC(CNc2ccc3ncc(-c4cccc(OC(F)(F)F)c4)n3n2)CC1` [SGI-1776, reference compound] gave an IC50 of 3.5 ± 0.6 µM. `NC(=O)c1c(O)cc(O)c2c1oc1ccccc12` [Compound 17, 1,3-Dihydroxydibenzo[b,d]furan-4-carboxamide] showed an IC50 of over 100 µM. `CC(=O)c1cc2c(cc1O)oc1c(C(N)=O)c(O)cc(O)c12` [Compound 43, 8-Acetyl-1,3,7-trihydroxydibenzo[b,d]furan-4-carboxamide] gave an IC50 of over 100 µM.

Tested on: HeLa cells
Assay: MTT cytotoxicity assay
Format: cell-based
Settings: Homo sapiens, 72 h
Excerpt: as §5
(§9) The cancer cell lines MCF-7, HT-29, and HeLa were obtained from Cell Bank of Rio de Janeiro, Brazil, and were grown in RPMI-1640 medium and L929 cells were grown in Dulbecco’s Modified Eagle’s Medium (DMEM). Both media were supplemented with fetal bovine serum (FBS) (10% of the final concentration) followed by treatment with penicillin and streptomycin as antibiotics (1% of the final concentration). The crude was incubated in the presence of CO2 atmosphere (5%) for 24 h with the temperature monitored and maintained at 37 °C.
(§10) MCF-7, HT-29, HeLa, and L929 cells (3×10^5 cells/mL) were plated in 96-well plates and incubated in the presence of CO2 atmosphere (5%) for 24 h at 37 °C. […] Then, 25 μL of MTT (5 mg/mL in PBS) were added to each well and the plates were left for another 3 h in the incubator at 37 °C and at the end of this period, the supernatant was aspirated. To perform the reading, 100 μL of dimethylsulfoxide (DMSO) were added in each well for the dissolution of the formazan crystals. The amount of formazan was measured by reading the plate at 560 nm absorbance. […] Each sample was tested in triplicate in two independent experiments.
With `NC(=O)c1c(O)cc(O)c2c1oc1ccccc12` [Compound 17, 1,3-Dihydroxydibenzo[b,d]furan-4-carboxamide] the IC50 was 9.5 ± 4.1 µM. With `CC(=O)c1cc2c(cc1O)oc1c(C(N)=O)c(O)cc(O)c12` [Compound 43, 8-Acetyl-1,3,7-trihydroxydibenzo[b,d]furan-4-carboxamide] the IC50 was 57.1 ± 7.6 µM.

Tested on: MCF-7 cells
Assay: MTT cytotoxicity assay
Format: cell-based
Settings: Homo sapiens, MCF7, 72 h
Excerpt: as §5, §9, §10
For `NC(=O)c1c(O)cc(O)c2c1oc1ccccc12` [Compound 17, 1,3-Dihydroxydibenzo[b,d]furan-4-carboxamide], the IC50 was over 100 µM. Compound `CC(=O)c1cc2c(cc1O)oc1c(C(N)=O)c(O)cc(O)c12` [Compound 43, 8-Acetyl-1,3,7-trihydroxydibenzo[b,d]furan-4-carboxamide] has an IC50 of over 100 µM.

Tested on: L929 cells
Assay: MTT assay, in vitro toxicity on normal cells
Format: cell-based
Settings: 72 h, normal mouse fibroblasts
Excerpt: as §5, §9, §10
For `NC(=O)c1c(O)cc(O)c2c1oc1ccccc12` [Compound 17, 1,3-Dihydroxydibenzo[b,d]furan-4-carboxamide], the IC50 was over 100 µM. With `CC(=O)c1cc2c(cc1O)oc1c(C(N)=O)c(O)cc(O)c12` [Compound 43, 8-Acetyl-1,3,7-trihydroxydibenzo[b,d]furan-4-carboxamide] the IC50 was over 100 µM.

Tested on: not given
Assay: not given
Settings: not given
With `COc1cc(OC)c2c(oc3ccc(C(F)(F)F)cc32)c1C(N)=O` [Compound 42, 1,3-Dimethoxy-8-(trifluoromethyl)dibenzo[b,d]furan-4-carboxamide] the melting point was 250 to 251 °C. Work on `COc1cc(OC)c2c(oc3c(N)cccc32)c1C(N)=O` [Compound 18, 6-Amino-1,3-dimethoxydibenzo[b,d]furan-4-carboxamide] yielded a melting point of 293 to 294 °C. `COc1ccc2c(c1)oc1c(C(N)=O)c(OC)cc(OC)c12` [Compound 39, 1,3,7-Trimethoxydibenzo[b,d]furan-4-carboxamide] gave a melting point of 332 to 333 °C. In the case of `NC(=O)c1c(O)cc(O)c2c1oc1ccccc12` [Compound 17, 1,3-Dihydroxydibenzo[b,d]furan-4-carboxamide], the melting point is reported as 219 to 220 °C. `COc1cc(OC)c2c(oc3c([N+](=O)[O-])cccc32)c1C(N)=O` [Compound 14, 1,3-Dimethoxy-6-nitrodibenzo[b,d]furan-4-carboxamide] gave a melting point of 298 to 299 °C. Work on `CC(=O)c1cc2c(cc1O)oc1c(C(N)=O)c(O)cc(O)c12` [Compound 43, 8-Acetyl-1,3,7-trihydroxydibenzo[b,d]furan-4-carboxamide] yielded a melting point of 335 to 336 °C. For `COc1cc(OC)c2c(oc3ccccc32)c1C(N)=O` [Compound 19, 1,3-Dimethoxydibenzo[b,d]furan-4-carboxamide], the melting point was 296 to 297 °C.

Tested on: Pim-1
Assay: not given
Settings: Figure 1; cited from earlier work
For `CC(=O)C1=C(O)C=C2Oc3c(C(C)=O)c(O)c(C)c(O)c3[C@@]2(C)C1=O` [(+)-Usnic acid], the IC50 is listed as 0.21 µM.

Tested on: Pim-2
Assay: not given
Settings: Figure 1; cited from earlier work
In the case of `CC(=O)C1=C(O)C=C2Oc3c(C(C)=O)c(O)c(C)c(O)c3[C@@]2(C)C1=O` [(+)-Usnic acid], the IC50 is given as 0.58 µM.
